The species named for test [1] is Homo sapiens. Description: Effect on FTase mediated Ras farnesylation in human aortic smooth muscle cells at 250 uM after 72 hrs by Western blot analysis. In general terms: In western blotting, separated proteins are transferred to a membrane and probed.
Test [2] is described as follows: Antiproliferative effect on human aortic smooth muscle cells. It is filed as functional.
Test [3] is described as follows: Inhibition of farnesyl transferase. Further details: species or system Homo sapiens.
The species named for test [4] is Homo sapiens. Briefly: Effect on FTase mediated Ras farnesylation in human aortic smooth muscle cells at 2 uM after 72 hrs by Western blot analysis.

Active and inactive are the calls of the source. The calls are words filed in the database; no cut-off is given here.

Broadly, the IC50 is the concentration needed to halve the response being measured. Read a high IC50 as a need for much substance.

Take `CSCC[C@@H](NC(=O)c1ccc(OC[C@@H]2COc3ncccc3O2)cc1-c1ccccc1C)C(=O)O`: the result in the test filed under Homo sapiens [1] was Active. For the same molecule, the IC50 stood at 16.8 µM in test [2] and 0.053 µM in test [3]. Molecule `COc1ccccc1-c1c(CN[C@H](CCSC)C(=O)O)cccc1NC(=O)C[C@@H]1COc2ncccc2O1` came in with a half-inhibitory concentration (IC50) in test [3] greater than 1000 µM. In test [3], `COc1ccccc1-c1cc(OC[C@@H]2COc3ncccc3O2)ccc1C(=O)N[C@@H](CCSC)C(=O)O` (mixture of isomers) had a half-maximal inhibitory concentration (IC50) of 0.055 µM. For the molecule `CSCC[C@H](NC(=O)c1ccc(OC[C@H]2COc3ncccc3O2)cc1-c1ccccc1C)C(=O)O`, the values for the IC50 in test [2] and in test [3] were 158 µM and 0.05 µM, respectively. In turn, `COc1ccccc1-c1cc(OC[C@@H]2COc3ncccc3O2)ccc1C(=O)N[C@H](CCSC)C(=O)O` showed an IC50 in test [3] of 0.112 µM. This counts as sub-micromolar.

For the molecule `CCC(C)(C)C(=O)O[C@H]1C[C@@H](C)C=C2C=C[C@H](C)[C@H](CC[C@@H]3C[C@@H](O)CC(=O)O3)[C@H]21`, in the test filed under Homo sapiens [4], the result was Active.

In turn, `COc1ccccc1-c1cc(OC[C@H]2COc3ncccc3O2)ccc1C(=O)N[C@@H](CCSC)C(=O)O` had an IC50 in test [3] of 0.053 µM.

Take `CSCC[C@@H](NCc1cccc(NC(=O)C[C@H]2COc3ncccc3O2)c1-c1ccccc1C)C(=O)O` (mixture of isomers): the 50% inhibitory concentration (IC50) in test [3] is greater than 1000 µM. Same read-out and setting: the same measure for `COc1ccccc1-c1c(CN[C@H](CCSC)C(=O)O)cccc1NC(=O)C[C@H]1COc2ncccc2O1` (mixture of isomers): 843 µM. With `COc1ccccc1-c1cc(OC[C@H]2COc3ncccc3O2)ccc1C(=O)N[C@H](CCSC)C(=O)O`, the IC50 in test [3] is greater than 1000 µM. As to `CSCC[C@@H](NC(=O)c1ccc(OC[C@H]2COc3ncccc3O2)cc1-c1ccccc1C)C(=O)O`, the figures for the IC50 in test [2] and in test [3] were 238 µM and 0.075 µM, respectively.

In test [3], `COc1ccccc1-c1c(CN[C@@H](CCSC)C(=O)O)cccc1NC(=O)C[C@H]1COc2ncccc2O1` displayed a concentration for half-maximal inhibition (IC50) of 302 µM. `CSCC[C@@H](NCc1cccc(NC(=O)C[C@@H]2COc3ncccc3O2)c1-c1ccccc1C)C(=O)O` came in with a 50% inhibitory concentration (IC50) in test [3] greater than 1000 µM. `CSCC[C@H](NCc1cccc(NC(=O)C[C@@H]2COc3ncccc3O2)c1-c1ccccc1C)C(=O)O` (mixture of isomers) returned a 50% inhibitory concentration (IC50) in test [3] of 16 µM. This lies in the double-digit micromolar range. For `CSCC[C@H](NC(=O)c1ccc(OC[C@@H]2COc3ncccc3O2)cc1-c1ccccc1C)C(=O)O`, the outcome in the test listed under Homo sapiens [1] was Active. The 50% inhibitory concentration (IC50) in test [2] stood at 58.8 µM; in test [3], 0.045 µM.

Molecule `COc1ccccc1-c1c(CN[C@@H](CCSC)C(=O)O)cccc1NC(=O)C[C@@H]1COc2ncccc2O1` (mixture of isomers) came in with an IC50 in test [3] of 151 µM. Regarding `CSCC[C@H](NCc1cccc(NC(=O)C[C@H]2COc3ncccc3O2)c1-c1ccccc1C)C(=O)O`, the IC50 in test [3] is 12 µM.

(Values after ChEMBL document CHEMBL1140522, “Peptidomimetic inhibitors of farnesyltransferase with high in vitro activity and significant cellular potency” (Bioorg Med Chem Lett, 2007).)
